Read-outs that look alike come from different tables or passages of the source.
Tests used:
[1] = first patient studies; cited from earlier work
in vivo = test: in vivo; parameters: species or system mice; conditions: mouse, 24 h p.i.
Protocol: For biodistribution studies, the ^177Lu-labelled compound (approx. 2–3 MBq, 100 pmol) was injected into a lateral tail vein (n = 4) of anesthetised (2% isoflurane) AR42J tumour-bearing CB-17-SCID mice. At 24 h post-injection (p.i.), the mice were euthanised. Thereafter, the pertinent organs were removed, weighed and measured using a γ-counter.
For all competition studies, 2.90 mg/kg (40 nmol) of [^natLu]Lu-DOTA-MGS5 (10^−3 M in phosphate-buffered saline) were co-administered.
Figure S4. (a) Biodistribution of [177Lu]Lu-DOTA-rhCCK-16 (100 pmol) co-injected with [natLu]Lu-DOTA-MGS5
(40 nmol) in selected organs (%ID/g) at 24 h p.i. in AR42J tumour-bearing CB17-SCID mice. Data is expressed as
mean ± SD (n = 2). (b) Representative µSPECT/CT images of [177Lu]Lu-DOTA-rhCCK-16 co-injected with [natLu]Lu-
DOTA-MGS5 (40 nmol) at 24 h p.i. in AR42J tumour-bearing CB17- SCID mice.
(1 picture or pasted object on this page, not shown here)

| Structure (SMILES) | median (interquartile range) absorbed tumour dose [1] | tissue uptake at 24 h (in vivo; CB17-SCID, iv, total radioactivity, competition, read-out: Activity levels in the stomach, co-injection of excess [natLu]Lu-DOTA-MGS5) | tissue uptake at 24 h (in vivo; CB17-SCID, iv, total radioactivity, competition, read-out: activity levels in the tumour, co-injection of excess [natLu]Lu-DOTA-MGS5) | tissue uptake at 24 h (in vivo; 100 pmol + 40 nmol [natLu]Lu-DOTA-MGS5, n = 2, read-out: Biodistribution competition studies, Adrenal) | tissue uptake at 24 h (in vivo; 100 pmol + 40 nmol [natLu]Lu-DOTA-MGS5, n = 2, read-out: Biodistribution competition studies, Blood) | tissue uptake at 24 h (in vivo; 100 pmol + 40 nmol [natLu]Lu-DOTA-MGS5, n = 2, read-out: Biodistribution competition studies, Bone) | tissue uptake at 24 h (in vivo; 100 pmol + 40 nmol [natLu]Lu-DOTA-MGS5, n = 2, read-out: Biodistribution competition studies, Heart) | tissue uptake at 24 h (in vivo; 100 pmol + 40 nmol [natLu]Lu-DOTA-MGS5, n = 2, read-out: Biodistribution competition studies, Intestine) | tissue uptake at 24 h (in vivo; 100 pmol + 40 nmol [natLu]Lu-DOTA-MGS5, n = 2, read-out: Biodistribution competition studies, Kidney) | tissue uptake at 24 h (in vivo; 100 pmol + 40 nmol [natLu]Lu-DOTA-MGS5, n = 2, read-out: Biodistribution competition studies, Liver) | tissue uptake at 24 h (in vivo; 100 pmol + 40 nmol [natLu]Lu-DOTA-MGS5, n = 2, read-out: Biodistribution competition studies, Lung) | tissue uptake at 24 h (in vivo; 100 pmol + 40 nmol [natLu]Lu-DOTA-MGS5, n = 2, read-out: Biodistribution competition studies, Muscle) | tissue uptake at 24 h (in vivo; 100 pmol + 40 nmol [natLu]Lu-DOTA-MGS5, n = 2, read-out: Biodistribution competition studies, Pancreas) | tissue uptake at 24 h (in vivo; 100 pmol + 40 nmol [natLu]Lu-DOTA-MGS5, n = 2, read-out: Biodistribution competition studies, Spleen) | tissue uptake at 24 h (in vivo; 100 pmol + 40 nmol [natLu]Lu-DOTA-MGS5, n = 2, read-out: Biodistribution competition studies, Stomach) | tissue uptake at 24 h (in vivo; 100 pmol + 40 nmol [natLu]Lu-DOTA-MGS5, n = 2, read-out: Biodistribution competition studies, Tumour) |
| --- | --- | --- | --- | --- | --- | --- | --- | --- | --- | --- | --- | --- | --- | --- | --- | --- |
| CCCC[C@H](NC(=O)[C@H](Cc1c[nH]c2ccccc12)NC(=O)CNC(=O)[C@H](Cc1ccc(O)cc1)NC(=O)[C@H](C)NC(=O)[C@@H](CCC(=O)O)NC(=O)[C@@H](CCC(=O)O)NC(=O)[C@@H](CCC(=O)O)NC(=O)[C@@H](CCC(=O)O)NC(=O)[C@@H](CCC(=O)O)NC(=O)[C@@H](CCC(=O)O)NC(=O)CN1CCN(CC(=O)O)CCN(CC(=O)O)CCN(CC(=O)O)CC1)C(=O)N[C@@H](CC(=O)O)C(=O)N[C@@H](Cc1ccccc1)C(N)=O [[nat/177Lu]Lu-DOTA-PP-F11N, metal not drawn, reference compound] | 0.88 Gy/GBq | – | – | – | – | – | – | – | – | – | – | – | – | – | – | – |
| CCCC[C@H](NC(=O)[C@H](Cc1c[nH]c2ccccc12)NC(=O)CNC(=O)[C@H](Cc1ccc(O)cc1)NC(=O)[C@H](C)NC(=O)CC[C@@H](NC(=O)CC[C@@H](NC(=O)CC[C@@H](NC(=O)CC[C@@H](NC(=O)CC[C@@H](NC(=O)CC[C@@H](NC(=O)[C@@H](CNC(=O)c1ccc([Si](F)(C(C)(C)C)C(C)(C)C)cc1)NC(=O)CC[C@H](C(=O)O)N1CCN(CC(=O)O)CCN(CC(=O)O)CCN(CC(=O)O)CC1)C(=O)O)C(=O)O)C(=O)O)C(=O)O)C(=O)O)C(=O)O)C(=O)N[C@@H](CC(=O)O)C(=O)N[C@@H](Cc1ccccc1)C(N)=O [[nat/177Lu]Lu-(R)-DOTAGA-rhCCK-16, metal not drawn] | – | < 0.3 %ID/g | < 1 %ID/g | 0.4 ± 0.11 %ID/g | 0.05 %ID/g | 0.24 ± 0.04 %ID/g | 0.13 ± 0.01 %ID/g | 0.16 ± 0.03 %ID/g | 105 ± 21 %ID/g | 2.31 ± 0.66 %ID/g | 2.59 ± 1.27 %ID/g | 0.06 ± 0.04 %ID/g | 0.2 ± 0.01 %ID/g | 1.73 ± 0.01 %ID/g | 0.15 ± 0.04 %ID/g | 0.91 ± 0.04 %ID/g |

— paper PMC9783573, “Introduction of a SiFA Moiety into the D-Glutamate Chain of DOTA-PP-F11N Results in Radiohybrid-Based CCK-2R-Targeted Compounds with Improved Pharmacokinetics In Vivo” (Pharmaceuticals, 2022)
